# How the values were obtained:
# [1] = Individual components administered separately from the other components; type: in vivo, human; details: administered separately from the other components of the invention
# Excerpt: Thus, the invention is named “Formula of activity”. The invention offers methods of treating patients who refuse food and can die as a result. […] It is possible that this new effect is produced by a new substance that is formed as a result of the interaction of the components of the invention with each other or with other naturally occurring substances in the body. The components may exert their effect by through the reticular formation in the brain, which is the regulating center of different brain functions. The reticular formation coordinates the interactions between all structures of the brain. It analyzes and corrects the functions of the brain structures and ensures their proper hierarchical dependencies, as well as the readiness of the central nervous system to perform its functions.
# [2] = Effect of composition on selected patients and disorders (case reports); type: in vivo, human
# Excerpt: The following are several of many patients who were successfully treated by the invention.
# [3] = cited from earlier work
compound,measurement,setting,value
calcium pantothenate,Stimulating or disinhibiting effect / effect on appetite when administered alone,[1],does not lead to a desired stimulating or disinhibiting effect
CN1C(=O)CN=C(c2ccccc2)c2cc(Cl)ccc21 [valium],Sleep,"[2]; Patient S, closed head trauma, before the course of the invention, injection",they would fall asleep only after injection of valium
O=S(=O)([O-])CC(S)CS.[Na+] (stereo not shown) [Unithiol],Stimulating or disinhibiting effect / effect on appetite when administered alone,[1],does not lead to a desired stimulating or disinhibiting effect
CN(C)CCCN1c2ccccc2Sc2ccc(Cl)cc21 [aminazine],Effect after administration,"[2]; Patient B, paranoid schizophrenia, after disinhibition, 50 mg intravenously",the patient fell asleep
CN1CCN(CCCN2c3ccccc3Sc3ccc(C(F)(F)F)cc32)CC1 [Stelazine],Clinical outcome,"[2]; Patient N, postpartum psychosis, 5 mg once per day first week, then 1 mg two times a day","improved regarding their condition and delusional ideas; however they remained apathetic, fatigued and indifferent"
"O=S(=O)([O-])[O-].[Mg+2] [Magnesium sulfate, magnesium sulfate]",Stimulating or disinhibiting effect / effect on appetite when administered alone,[1],does not lead to a desired stimulating or disinhibiting effect
CCC1(CCC(C)C)C(=O)N=C([O-])NC1=O.[Na+] (stereo not shown) [Barbamyl],Dependency on repeated injections,[3],lead to psychological and physiological dependency on this substance

# From patent publication US9072691B2, “Nutritional supplement for disinhibiting therapy of psychiatric patients” (priority 2012, dated 2015)
